Consider one substance from patent US10973896B2, “Treatment or prevention of melanoma using photochemical internalization of a melanoma antigen” (PCI Biotech AS, priority 2014, dated 2021).

Holding throughout (format): in vivo, C57BL/6 mice
Experiment [1] relates to CD8, CD44 and IFN-γ positive cells. The experiment is described as follows: Intracellular IFN-γ staining after SIINFEKL re-stimulation (Example 2). Here is the method:
(§1) The frequency of OVA-specific CD8 T-cells in blood was monitored by staining the cells with anti-CD8 antibody and H-2K^b/SIINFEKL ProS pentamer (Proimmune, Oxford, UK) for analysis by flow cytometry. The activation status of the cells was further analysed by testing the expression of CD44 and CD69 by flow cytometry. Intracellular staining for IFN-γ was done after overnight stimulation of splenocytes in 24-well plates with the CD8 epitope OVA257-264 (SIINFEKL) at 37 ° C. Brefeldin A was added during the last 4 hours. The cells were then washed and fixed with 4% formaldehyde in PBS for 10 min on ice. Anti-CD16/32 was added to block unspecific binding to Fc receptors. The cells were then permeabilised with 0.1% NP40 in PBS for 3 min and washed before staining with anti-IFN-γ, anti-CD8 and ant-CD44 antibodies (eBioscience or BD Pharmingen). The cells were acquired using FACSCanto (BD Biosciences, San Jose, USA) and analysed using FlowJo 8.5.2 software (Tree Star, Inc., Ashland, Oreg.).

Experiment [2] has as its system SIINFEKL-specific CD8 T cells. The experiment is described as follows: PCI immunisation of OT-I-spiked mice, SIINFEKL pentamer flow cytometry (Example 2). Here is the method: One day prior to the immunisation, spleens and lymph nodes were isolated from female OT-1 mice, and erythrocytes were removed by lysis (RBC Lysing Buffer Hybri-Max from Sigma-Aldrich) from the homogenised cell suspensions. The remaining cells were washed in PBS, filtered through 70 micron nylon strainers, and 2×10^6 OT-1 cells were administered by intravenous injection into recipient female C57BLJ6 mice; the adoptive transfer of SIINFEKL-specific CD8 T cells facilitates monitoring of the immune response by flow cytometry. One day or 8 hours later, mice were bled by tail bleeding, and the blood was collected in heparin-containing tubes for analysis of the baseline frequency of OVA-specific CD8 T cells.
Then, the mice were shaved on the abdominal area, and the vaccines, consisting of OVA or of a mixture of OVA and TPCS2a, were injected intradermally using syringes with 29G needles. The vaccines were kept light protected and used within 60 minutes of preparation. The vaccines were given in two injections of 50 μl each, on the left and right side of the abdominal mid line. OVA was tested at 10 to 100 μg per dose. The TPCS2a dose was 7.5 to 250 μg.
On day 0, prior to vaccination and on various days thereafter (e.g. day 6, 7, 8, 9, 14, 23, as indicated) mice were bled by tail bleeding and erythrocytes were removed by lysis, before analysis of antigen-specific CD8 T cells by flow cytometry. At the end of the experiment (typically 11, 12, 14 or 23 days), the mice were euthanized and the splenocytes analysed ex vivo. At various time points after the TPCS2a injection (0-48 hours), the mice were anaesthetised by intraperitoneal injection of a mixture of ketamine (25 mg/kg body weight) and xylazin (4 mg/kg) and placed on a light source (for illumination and activation of the photosensitiser TPCS2a). The light dose was 6 minutes, if not otherwise stated. The whole procedure is illustrated in the scheme of FIG. 6A. The illumination of mice using LumiSource™ is imaged in FIG. 6B.
as §1
(In flow cytometry, cells or beads pass a laser one at a time.)

The subject of another experiment is OVA-expressing B16 cells. Nature of the experiment: Metastatic potential of melanoma, lung melanoma spots after intravenous B16 (Example 1). Conditions: B16 melanoma cells given intravenously after immunisation; FIG. 4. Here is the method: C57BLJ6 mice were vaccinated as above with OVA with or without TPSC2a and challenged four days later with 500,000 OVA-expressing B16 cells given by intravenous injection. On day 19, mice were euthanized and spleens and lungs were harvested. The lungs were analysed by counting melanoma spots as a measure for metastasis. Spleen cells were analysed by flow cytometry for CD8 T-cell activation as described above.

The test system of experiment [3] is OVA-expressing B16 melanoma cells. The experiment is described as follows: Therapeutic vaccination of melanoma-bearing mice (Example 1). As to conditions: immunised after appearance of tumours under the skin; FIG. 2A.
Experiment [4] has the same test system. The experiment is described as follows: Prophylactic vaccination against intradermal melanoma challenge (Example 1). As to conditions: B16 cells intradermally five days after immunisation; FIG. 1D.
For experiment [5], the system named is splenocytes re-stimulated with SIINFEKL
Nature of the experiment: IL-2 and IFN-γ ELISA of re-stimulated splenocytes (Example 2). Conditions: day 11 splenocytes, 10 μg OVA alone, or with PCI at 25 μg TPCS2a. How it is done: Alternatively, 2×10^5 splenocytes were re-stimulated in 96-well plates with OVA protein or the SIINFEKL. After 24 and 72 hours, supernatants were collected and analysed for IL-2 or IFN-γ by ELISA (eBioscience—performed according to the manufacturer's instructions).
On the technique in general: In an ELISA, binding on a coated surface is turned into a signal by an enzyme label.

Turning to “OVA: Chicken ovalbumin protein, model antigen expressed by the transfected B16 melanoma cells”, the “responders for IFN-γ production in splenocytes (better responders among mice tested)” value in experiment [1] (day 11, 10 μg OVA alone, or OVA and PCI (ten mice, 25 and 250 μg TPCS2a)) is “weak responders in all mice tested”. In experiment [1] (day 14 PBMCs, OVA alone, or PCI with illumination at 2 hours), the “increase in frequency of IFN-γ-producing CD44-positive CD8 cells compared to control mice with OT-I transfer only” value was found to be 4 fold. Moreover, the “frequencies of CD44-positive IFN-γ producing cells in splenocytes” value in experiment [1] (day 23, FIG. 7E right panel) was “barely detectable frequencies”. The “effect on SIINFEKL-specific CD8 T cells in blood as compared to untreated animals” value in experiment [2] (10 μg OVA alone, data not shown) is given as “no measurable effect”. Moreover, the “activation markers CD44, CD25 and CD69 on SIINFEKL-specific cells in blood” value in experiment [2] (by day six) is recorded as “strong up-regulation”. Also, in experiment [2] (day 23, OVA alone, or OVA plus TPCS2a illuminated two hours after administration), the “numbers of antigen-specific CD8 T cells” value is “retracted to baseline levels”. For the same substance, the “frequencies of measurable SIINFEKL-specific CD8 T cells in splenocytes” value in experiment [2] (day 54, 20 μg OVA with or without 200 μg TPCS2a, FIG. 14A) is “not different from untreated mice”. The “frequency of SIINFEKL-specific CD8 T cells in the peripheral blood” value in experiment [2] (day six, 100 μg OVA alone, or with 25 μg TPCS2a illuminated two hours after vaccination) was “approximately 3.5%”. In the experiment on OVA-expressing B16 cells, the “melanoma spots (lung metastases) on the lung, average” value is reported as “approx. 50”. Also, the “growth of established tumours” value in experiment [3] is reported as “grew readily”. Moreover, the “mice that developed tumours” value in experiment [4] is “Fifty”. The “IL-2 secretion by ELISA” value in experiment [5] (24 hours) was “weak but clearly measurable”. In experiment [5] (72 hours), the “IFN-γ secretion by ELISA” value is “not IFN-γ secretion”.
